Results reported in patent US20240166690A1, “MULTI-TARGET CY[…] FOR OPIOID/NEUROPEPTIDE FF RECEPTORS, AND PREPARATION THEREFOR AND APPLICATION THEREOF” (SHANGHAI TIANCI LIFE SCIENCE DEVELOPMENT CO., LTD., priority 2021, published 2024).
Bridge positions count the residues as written; N and C are the ends. Square brackets hold non-standard residues; d marks the D form. Peptide text beside a SMILES is read from it. NMeF = CN[C@@H](Cc1ccccc1)C(=O)O; Cha = N[C@@H](CC1CCCCC1)C(=O)O; dOrn = NCCC[C@@H](N)C(=O)O; Aib = CC(C)(N)C(=O)O; βAla = NCCC(=O)O

Experiments:
[1] = morphine, reference method; cited from earlier work
Delta-opioid receptor = target: T1, Delta-opioid receptor (Homo sapiens, UniProt P41143); experiment: cAMP functional experiment, Delta-opioid receptor (forskolin-induced cAMP accumulation); format: cell-based
T1 construct: expressed in transfected cells; host or cells: HEK293
T1 sequence (P41143 whole entry): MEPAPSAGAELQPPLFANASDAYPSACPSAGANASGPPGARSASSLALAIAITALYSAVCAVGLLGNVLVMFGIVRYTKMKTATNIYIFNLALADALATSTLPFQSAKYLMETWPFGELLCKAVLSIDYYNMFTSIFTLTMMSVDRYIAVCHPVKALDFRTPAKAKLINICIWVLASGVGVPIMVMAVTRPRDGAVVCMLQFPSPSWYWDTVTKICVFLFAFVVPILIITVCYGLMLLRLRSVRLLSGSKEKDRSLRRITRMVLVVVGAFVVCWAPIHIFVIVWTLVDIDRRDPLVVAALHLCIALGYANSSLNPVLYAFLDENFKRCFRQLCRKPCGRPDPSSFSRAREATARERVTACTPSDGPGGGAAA
Procedure: (§1) The agonistic activity of the cyclopeptide molecule of the present invention against Mu-opioid receptor, Delta-opioid receptor, Kappa-opioid receptor, NPFF1 receptor and NPFF2 receptor was evaluated by detecting the regulation of the cyclopeptide molecule of the present invention on the intracellular accumulation of cyclic adenosine monophosphate (cAMP) induced by Forskolin in HEK293 cells stably expressing these five receptors. The experimental method was: the cells were seeded in 24 well plates with 120000 cells per well, and were cultured for more than 20 hours. At the beginning of the experiment, the culture medium in the culture dish was suck out, and then 500 μL of preheated serum-free medium containing 1 mM of IBMX was added, the mixture was incubated at 37° C. for 10 minutes. Then each 10 μL of the drug to be tested and 10 μM of forskolin (final concentration) were added to each well. The mixture was incubated at 37° C. for 30 minutes. After incubation, all the liquid was suck out from the culture dish, 500 μL of 0.2 N hydrochloric acid was added to each well, the mixture was incubated at room temperature for 30 minutes to promote cell lysis. After lysis was complete, NaOH was added to neutralize the hydrochloric acid solution used for lysis. Then all the liquid was suck out from the culture dish into centrifuge tubes, the liquid was centrifuged at 12000 rpm for 2 minutes. 50 μL was taken to a clean centrifuge tube, 100 μL of 60 μg/μL PKA was added, and 100 μL of TE cAMP buffer was added to the blank control group (B). Another 50 μL of 0.5 μ Ci[^3H]cAMP was added to each of the above centrifuge tubes, the mixture was quickly mixed and incubated at 4° C. for more than 2 hours. After incubation, another 100 μL of activated carbon suspension was added to each tube, the mixture was vortex agitated evenly, placed in an ice bath for 1 minute, centrifuged at 5000 rpm for 4 minutes. 200 μL of supernatant after centrifugation in each tube was suck out to a 24 well plate, with an additional 700 μL of scintillator liquid added per well, then the 24 well plate was sealed with adhesive film, placed for 3 hours, then placed on the scintillation instrument for measurement.
(§2) The inhibitory effect of cAMP was represented by the percentage (% control) of drug inhibition of intracellular cAMP accumulation induced by Forskolin, wherein % control=(cAMP content when treated with Forskolin−cAMP content when Forskolin co-treated with the test drug)/(cAMP content when treated with Forskolin−cAMP content when treated with solvent). The related % control data was represented by mean±S.E.M. The dose-effect relationship of the drug was statistically analyzed using a nonlinear regression model, and the IC50 values of the multi-target cyclopeptide molecule on inhibition of Forskolin induced intracellular cAMP accumulation were calculated using the statistical software GraphPad Prism version 5.0.

NPFF1 receptor = target: T2, NPFF1 receptor (Homo sapiens, UniProt Q9GZQ6); experiment: cAMP functional experiment, NPFF1 receptor (forskolin-induced cAMP accumulation); format: cell-based
T2 construct: expressed in transfected cells; host or cells: HEK293
T2 sequence (Q9GZQ6 whole entry): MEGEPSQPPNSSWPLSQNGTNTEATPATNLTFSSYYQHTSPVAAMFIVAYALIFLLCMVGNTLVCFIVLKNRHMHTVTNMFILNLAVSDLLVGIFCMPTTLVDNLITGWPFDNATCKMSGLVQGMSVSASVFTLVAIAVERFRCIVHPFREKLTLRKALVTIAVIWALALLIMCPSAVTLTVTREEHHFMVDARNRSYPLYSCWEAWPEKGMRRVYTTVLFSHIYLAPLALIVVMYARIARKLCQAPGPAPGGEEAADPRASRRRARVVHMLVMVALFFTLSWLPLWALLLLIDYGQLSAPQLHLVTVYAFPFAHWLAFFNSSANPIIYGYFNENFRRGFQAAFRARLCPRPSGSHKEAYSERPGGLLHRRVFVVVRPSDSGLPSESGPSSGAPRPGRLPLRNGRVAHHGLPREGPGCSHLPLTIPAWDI
Procedure: as §1, §2

Kappa-opioid receptor = target: T3, Kappa-opioid receptor (Homo sapiens, UniProt P41145); experiment: cAMP functional experiment, Kappa-opioid receptor (forskolin-induced cAMP accumulation); format: cell-based
T3 construct: expressed in transfected cells; host or cells: HEK293
T3 sequence (P41145 whole entry): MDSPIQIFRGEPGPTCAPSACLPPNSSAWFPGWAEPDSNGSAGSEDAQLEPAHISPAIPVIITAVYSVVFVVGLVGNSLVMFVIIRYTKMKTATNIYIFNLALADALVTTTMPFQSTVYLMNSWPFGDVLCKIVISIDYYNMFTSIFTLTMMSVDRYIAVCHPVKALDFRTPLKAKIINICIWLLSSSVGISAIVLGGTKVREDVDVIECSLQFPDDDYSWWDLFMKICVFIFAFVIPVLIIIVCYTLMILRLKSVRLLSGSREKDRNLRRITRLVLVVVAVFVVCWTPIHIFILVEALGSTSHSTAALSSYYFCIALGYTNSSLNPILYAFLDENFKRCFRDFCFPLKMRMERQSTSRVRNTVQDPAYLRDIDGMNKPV
Procedure: as §1, §2

Kunming male mice [2] = experiment: Photothermal tail flick experiment, subcutaneous injection; format: in vivo; conditions: photothermal tail flick
Procedure: (§3) Two administration methods were used: peripheral subcutaneous administration and oral administration. Subsequently, the analgesic activity of the drug was studied using an acute pain model of photothermal tail flick in mice.
Subcutaneous administration on the back was chosen for subcutaneous administration (s.c.). A sterile 1 mL syringe was used and the drug with the volume of 0.1 mL/10 g was injected for administration. The back skin was grasped with the right hand, the needle was tilted in, and the drug was injected subcutaneously into the mouse's back. After the needle was inserted, shook it left and right, and observe to confirm that the needle had indeed entered the subcutaneous area to prevent the needle from puncturing the skin and leaking the drug.
(§4) The photothermal tail flick experiment is based on the experimental method summarized by D'Amour and Smith to optimize the experimental parameters. The experiment selected Kunming male mice with body weigh 21±2 g, and ambient temperature controlled at 22±2° C. The experimental mice were allowed to drink water freely and were moved from the breeding room to the experimental area for adaptation for 30 minutes before starting the experiment. Then the mice were grab with the right hand and the tail hang freely. Then the mice's tail were placed on a radiation light source, 2-3 mm away from the mice tail. The intensity of radiation heat was adjusted to the tail flick time of mice being 3-5 s, which is the basic pain threshold of photothermal tail flick. The irradiation time of the mice tail should not exceed 10 s to prevent scalding of the mice tail, which was the maximum latency for photothermal tail flick. After administration, time points of 10, 20, 30, 45, 60, 90, 120, 180, 240, 300, 360, and 420 minutes were selected to measure the tail flick latency of mice after administration.
(§5) The analgesic effect of drugs was generally evaluated using the maximum analgesic effect MPE (%), MPE (%)=100×[(pain threshold after administration−basic pain threshold)/(10 seconds−basic pain threshold)]. 50% effective dose (ED50) refers to the corresponding drug dose that causes a 50% effect. ED50 and 95% confidence interval were calculated using MPE (%) and the drug concentration that achieves the maximum analgesic effect MPE (%) by the statistical software GraphPad Prism 5.0. The difference in analgesic effects was statistically analyzed using one-way ANOVA (Dunnett test), *P<0.05, **P<0.01, and ***P<0.001 indicated significance of the difference between the group with only drug injected and the saline group.

Kunming male mice [3] = experiment: Photothermal tail flick experiment, oral administration; format: in vivo; conditions: tail flick
Procedure: as §3
1 mL sterile syringe was used for oral administration (p.o.), the pinhead was replaced with a mouse gastric lavage needle, and […] of the drug was orally administered. The skin on the neck and back of the mouse was grasped with the left hand with the abdomen facing upwards. Noted that the mouse's entire body was fixed to vertical, which was beneficial for oral gavage. A gastric lavage needle (No. 12 needle and 1 mL syringe) was held in the right hand and was inserted to the esophagus along the upper jaw which is pressed the tongue tightly from the corner of the mouse's mouth. Gastric lavage fluid can be injected when the needle inserted 2.5 cm. The inserting length of the needle should be determined through practice in advance, as there is a sense of falling into a hole after the needle is inserted. If the injection position was appropriate, it should be very smooth. […] This can cause immediate death of the mouse after gavage.
as §4, §5

Mu-opioid receptor = target: T4, Mu-opioid receptor (Homo sapiens, UniProt P35372); experiment: cAMP functional experiment, Mu-opioid receptor (forskolin-induced cAMP accumulation); format: cell-based
T4 construct: expressed in transfected cells; host or cells: HEK293
T4 sequence (P35372 whole entry): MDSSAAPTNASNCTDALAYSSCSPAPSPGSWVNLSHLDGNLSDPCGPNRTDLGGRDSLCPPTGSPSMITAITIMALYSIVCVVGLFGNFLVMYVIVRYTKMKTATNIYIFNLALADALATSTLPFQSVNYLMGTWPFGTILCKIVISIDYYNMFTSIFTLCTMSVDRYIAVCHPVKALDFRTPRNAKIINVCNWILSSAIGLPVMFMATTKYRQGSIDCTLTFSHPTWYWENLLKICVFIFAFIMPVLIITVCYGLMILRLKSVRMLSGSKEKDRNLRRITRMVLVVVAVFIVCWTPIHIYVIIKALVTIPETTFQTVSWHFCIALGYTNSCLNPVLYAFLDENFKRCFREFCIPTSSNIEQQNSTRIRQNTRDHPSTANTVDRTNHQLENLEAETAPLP
Procedure: as §1, §2

NPFF2 receptor = target: T5, NPFF2 receptor (Homo sapiens, UniProt Q9Y5X5); experiment: cAMP functional experiment, NPFF2 receptor (forskolin-induced cAMP accumulation); format: cell-based
T5 construct: expressed in transfected cells; host or cells: HEK293
T5 sequence (Q9Y5X5 whole entry): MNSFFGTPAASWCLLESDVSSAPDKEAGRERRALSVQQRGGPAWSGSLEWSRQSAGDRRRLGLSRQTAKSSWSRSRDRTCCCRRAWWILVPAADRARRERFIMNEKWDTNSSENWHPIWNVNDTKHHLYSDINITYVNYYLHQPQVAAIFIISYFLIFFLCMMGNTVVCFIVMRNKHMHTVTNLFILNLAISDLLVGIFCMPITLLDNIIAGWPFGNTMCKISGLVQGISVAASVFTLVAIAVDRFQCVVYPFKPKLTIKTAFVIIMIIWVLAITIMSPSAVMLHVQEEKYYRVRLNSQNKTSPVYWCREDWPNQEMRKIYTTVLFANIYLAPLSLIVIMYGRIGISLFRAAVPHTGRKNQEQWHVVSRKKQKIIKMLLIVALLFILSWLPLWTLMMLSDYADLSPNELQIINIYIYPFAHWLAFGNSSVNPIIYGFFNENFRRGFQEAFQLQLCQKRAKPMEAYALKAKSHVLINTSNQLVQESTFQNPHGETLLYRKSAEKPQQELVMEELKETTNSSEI
Procedure: as §1, §2

## CN1C(=O)CNC(=O)[C@H](NC(=O)[C@@H](N)Cc2ccc(O)cc2)CCCCNC(=O)C[C@@H](C(=O)N2CCC[C@H]2C(=O)NC(C)(C)C(=O)N[C@@H](CCCNC(=N)N)C(=O)N[C@@H](CC2CCCCC2)C(N)=O)NC(=O)[C@@H]1Cc1ccccc1 [Compound 14, Tyr-c^[2,5][D-Lys-Gly-NMe-Phe-Asp]-Pro-Aib-Arg-Cha-NH2] (H-Y[dK]G[NMeF]DP[Aib]R[Cha]-NH2; lactam 2-5)
other
  melting point: 196 to 198 °C

## CN1CC[C@]23c4c5ccc(O)c4O[C@H]2[C@@H](O)C=C[C@H]3[C@H]1C5 [morphine]
[1]
  analgesic ED50: 1.68 mg/kg

## CN1C(=O)CNC(=O)[C@H](NC(=O)[C@@H](N)Cc2ccc(O)cc2)CCCCNC(=O)C[C@@H](C(=O)N2CCC[C@H]2C(=O)NCCC(=O)N[C@@H](CCCNC(=N)N)C(=O)N[C@@H](CC2CCCCC2)C(N)=O)NC(=O)[C@@H]1Cc1ccccc1 [Compound 13, Tyr-c[D-Lys-Gly-NMe-Phe-Asp]-Pro-β-Ala-Arg-Cha-NH2] (H-Y[dK]G[NMeF]DP[βAla]R[Cha]-NH2; lactam 2-5)
other
  melting point: 175 to 177 °C

## CN1C(=O)CNC(=O)[C@H](NC(=O)[C@@H](N)Cc2ccc(O)cc2)CCCNC(=O)C[C@@H](C(=O)N2CCC[C@H]2C(=O)N[C@@H](CCC(N)=O)C(=O)N[C@@H](CCCNC(=N)N)C(=O)N[C@@H](Cc2ccccc2)C(N)=O)NC(=O)[C@@H]1Cc1ccccc1 [Compound 8, Tyr-c^[2,5][D-Orn-Gly-NMe-Phe-Asp]-Pro-Gln-Arg-Phe-NH2] (H-Y[dOrn]G[NMeF]DPQRF-NH2; lactam 2-5)
Delta-opioid receptor
  IC50: 0.659 µM
NPFF1 receptor
  IC50: 0.439 µM
Kappa-opioid receptor
  IC50: 0.139 µM
Kunming male mice [2]
  ED50 value (95% confidence interval), analgesic activity: 15.0 (13.8 to 16.4) μg/kg
Kunming male mice [3]; oral administration at the maximum analgesic dose
  Maximum analgesic time: 30 min
Kunming male mice [3]; oral administration
  analgesic duration: 240 min
Mu-opioid receptor
  IC50: 0.168 µM
NPFF2 receptor
  IC50: 0.133 µM

## CN1C(=O)CNC(=O)[C@H](NC(=O)[C@@H](N)Cc2ccc(O)cc2)CCC(=O)NCCCC[C@@H](C(=O)N2CCC[C@H]2C(=O)N[C@@H](CCC(N)=O)C(=O)N[C@@H](CCCNC(=N)N)C(=O)N[C@@H](Cc2ccccc2)C(N)=O)NC(=O)[C@@H]1Cc1ccccc1 [Compound 7, Tyr-c^[2,5][D-Glu-Gly-NMe-Phe-Lys]-Pro-Gln-Arg-Phe-NH2] (H-Y[dE]G[NMeF]KPQRF-NH2; lactam 2-5)
other
  melting point: 182 to 184 °C
